Results from patent US6632829B2, “Sulfonamides and derivatives thereof that modulate the activity of endothelin” (Texas Biotechnology Corp., priority 1996, dated 2003).

What was measured:
[1] = target: T1, human ETA receptors (Homo sapiens, UniProt P25101); assay: Endothelin binding inhibition, Binding Test #1: competition with 125I-ET-1 for ETA receptors on TE 671 cell membranes; conditions: incubation at 24° C. (values marked †)
T1 construct: endogenous in cells; host or cells: TE 671 cells (ATCC HTB 139), membrane preparation
T1 sequence (P25101 21-427): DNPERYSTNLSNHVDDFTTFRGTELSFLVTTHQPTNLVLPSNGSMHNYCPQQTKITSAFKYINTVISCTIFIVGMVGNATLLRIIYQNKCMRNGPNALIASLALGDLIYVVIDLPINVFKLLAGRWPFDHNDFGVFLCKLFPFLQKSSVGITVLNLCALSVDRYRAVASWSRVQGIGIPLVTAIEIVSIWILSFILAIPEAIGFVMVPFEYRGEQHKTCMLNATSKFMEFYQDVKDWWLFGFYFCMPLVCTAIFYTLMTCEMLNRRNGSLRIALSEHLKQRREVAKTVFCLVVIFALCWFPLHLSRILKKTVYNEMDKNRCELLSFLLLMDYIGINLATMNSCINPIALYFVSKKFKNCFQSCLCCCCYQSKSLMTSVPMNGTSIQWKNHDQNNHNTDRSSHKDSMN

[2] = test system: Pulmonary Hypertension model; assay: Pulmonary Hypertension model; format: in vivo, rat; parameters: key: ++: effective at 5 mg/kg; −: no effect at 5 mg/kg; +: effective at 15 mg/kg
Protocol: As used herein, efficacy refers to the maximal effect that can be produced by a compound. Efficacy can be determined by methods known to those of skill in the art. For example, it can be determined by the properties of the compound and its receptor-effector system and is reflected in the plateau of the concentration-effect curve. In vivo efficacy refers to efficacy which is determined in an animal model. For example, in vivo efficacy of the compounds described herein can be determined by hypoxia-induced pulmonary hypertension in rat. See, e.g., DiCarlo et al. (1995) Am. J. Physiol. 269:[…]-[…]. Table 2 lists oral half-life, bioavailability, and in vivo activity of selected exemplary compounds. The in vivo activity was measured in a pulmonary hypertension model and is a measure of the activity of the compounds at selected dosages.

[3] = test system: hypertensive rat model; assay: Deoxycorticosterone acetate (DOCA)-salt hypertensive rat model; format: in vivo
Protocol: Selected compounds disclosed herein have been tested for activity in the deoxycorticosterone acetate (DOCA)-salt hypertensive rat model. To perform these tests, silastic MDX4-4210 elastomer implants containing 47 mg (DOCA) were prepared according to the method of Ornmsbee et al. ((1973) the J. Pharm. Sci. 62:255-257). Briefly, DOCA is incorporated into silicon rubber implants for sustained release. To prepare the implants the DOCA is incorporated into unpolymerized silicone rubber, catalyst is added and the mixture is cast in a hemicylindrical shape.
Sprague Dawley rats (7-8 weeks old) were unilaterally nephrectomized under ketamine anesthesia and a DOCA-implant was placed on the left lateral dorsal abdomen of the animal. The rats were allowed to recover for three weeks. During recovery they were permitted free access to normal rat chow and 0.9% NaCl drinking solution in place of drinking water. The rats develop hypertension within 3 weeks. […]
On the day of experimentation, catheters were inserted under brevital anesthesia into the right femoral artery for measurement of blood pressure, and into the right femoral vein for administration of a selected compound. The animals were placed in a restrainer and allowed to recover for a minimum of 60 min or until a steady mean arterial blood pressure was recorded. […] Blood pressure was recorded continuously for a further 10 hrs.

[4] = Oral half-life and peak plasma levels; format: in vivo
Text: As used herein, bioavailability refers to the rate and extent of absorption. Methods for determining bioavailability are well known to those of skill in the art. For example, bioavailability of any of the compounds described herein can be determined empirically by administration of the compound to an animal, followed by taking blood samples over time and measuring the blood concentration of the compound. In vivo half life (t1/2) is defined as the time it takes for the concentration of the compound in the blood to be reduced by one-half. Estimations of the area under the curve for intravenous administration can be used to estimate the area under the curve for oral administration, ylelding bioavailability data. See, e.g., Milo Gibal (1991) Biopharmaceutics and Pharmacology, 4th edition (Lea and Sediger).
Table 2 lists oral half-life, bioavailability, and in vivo activity of selected exemplary compounds. The in vivo activity was measured in a pulmonary hypertension model and is a measure of the activity of the compounds at selected dosages.

IC50 [1]: 1.71 nM
POt½ in Rat ([4]; oral): 7 h
Peak Plasma Levels ([4]; rat, in vivo): 5.6 µg/mL
Structure (SMILES): Cc1cc(C)c(NC(=O)c2sccc2S(=O)(=O)Nc2onc(C)c2Cl)c(C)c1O [N-(4-chloro-3-methyl-5-isoxazolyl)-2-(3-hydroxy-2,4,6-trimethylphenylaminocarbonyl)thiophene-3-sulfonamide]
in vivo Efficacy [2]: ++
decrease of blood pressure [3]: effective in decreasing blood pressure
